Assay results from patent US12594276B2, “Inhibitors of human immunodeficiency virus replication” (ViiV Healthcare UK (No.5) Limited, priority 2024, dated 2026).

Assays:
[1] = tested on: recombinant NL4-3 virus (nef section replaced with Renilla luciferase gene) in MT-2 cells; assay: HIV cell culture assay (antiviral activity, luciferase readout); format: cell-based; conditions: Renilla, NL43, MT-2 cells infected for 4-5 days with recombinant NL4-3 Renilla luciferase virus
Outline: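 Read-out: Renilla luciferase (live-cell substrate) in infected MT-2 cells after 4-5 d with serial compound dilutions. Virus from 293T transfection of the proviral clone, titered by luciferase in MT-2. EC50 via median effect equation fit.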

[2] = Compound cytotoxicity, XTT-based colorimetric assay; format: cell-based; conditions: human; uninfected MT2 cells, day 4, XTT; read-out: CC50
Outline: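 CC50 derived from XTT colorimetric signal measured on day 4 in MT2 cells that were not infected. All other steps followed the antiviral assay protocol.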

SMILES | EC50 [1] [nM] | CC50 at 4 days [2] [nM]
Cc1cc(C2(F)CCC(F)(F)CC2)nc2nc([C@H](Cc3cc(F)cc(F)c3)NC(=O)Cn3nc(C4CC4)c4c3C[C@@H]3C[C@H]43)n(-c3ccc(Cl)c4c(NS(C)(=O)=O)nn([C@H](C)C(=O)N5C[C@@H](C)O[C@@H](C)C5)c34)c(=O)c12 (relative stereo) [Example 744, N-[(1S)-1-[(3P)-3-{4-chloro-1-[(2R)-1-[(2R,6S)-2,6-dimethylmorpholin-4-yl]-1-oxopropan-2-yl]-3-methanesulfonamido-1H-indazol-7-yl}-5-methyl-4-oxo-7-(1,4,4-trifluorocyclohexyl)-3H,4H-pyrido[2,3-d]pyrimidin-2-yl]-2-(3,5-difluorophenyl)ethyl]-2-[(2R*,4R*)-9-cyclopropyl-7,8-diazatricyclo[4.3.0.0^2,^4]nona-1(6),8-dien-7-yl]acetamide] | 0.017 | > 20
COCCCn1nc(NS(C)(=O)=O)c2c(Cl)ccc(-n3c([C@H](Cc4cc(F)cc(F)c4)NC(=O)Cn4nc(C(F)F)c5c4C(F)(F)[C@@H]4C[C@H]54)nc4nc(C5CCC(F)(F)CC5)cc(CN5C[C@H](F)C[C@H](F)C5)c4c3=O)c21 (atropisomer, axis not shown; (P)) [Example 488, N-[(1S)-1-[(3P)-3-[4-chloro-3-methanesulfonamido-1-(3-methoxypropyl)-1H-indazol-7-yl]-7-(4,4-difluorocyclohexyl)-5-{[(3R,5S)-3,5-difluoropiperidin-1-yl]methyl}-4-oxo-3H,4H-pyrido[2,3-d]pyrimidin-2-yl]-2-(3,5-difluorophenyl)ethyl]-2-[(2S,4R)-9-(difluoromethyl)-5,5-difluoro-7,8-diazatricyclo[4.3.0.0^2,^4]nona-1(6),8-dien-7-yl]acetamide] | 0.009 | > 20
CC1(C)CN(CCn2nc(NS(C)(=O)=O)c3c(Cl)ccc(-n4c([C@H](Cc5cc(F)cc(F)c5)NC(=O)Cn5nc(C(F)F)c6c5C(F)(F)[C@@H]5C[C@H]65)nc5nc(C6CCC(F)(F)CC6)cc(CF)c5c4=O)c32)CC(C)(C)O1 (atropisomer, axis not shown; (P)) [Example 513, N-[(1S)-1-[(3P)-3-{4-chloro-3-methanesulfonamido-1-[2-(2,2,6,6-tetramethylmorpholin-4-yl)ethyl]-1H-indazol-7-yl}-7-(4,4-difluorocyclohexyl)-5-(fluoromethyl)-4-oxo-3H,4H-pyrido[2,3-d]pyrimidin-2-yl]-2-(3,5-difluorophenyl)ethyl]-2-[(2S,4R)-9-(difluoromethyl)-5,5-difluoro-7,8-diazatricyclo[4.3.0.0^2,^4]nona-1(6),8-dien-7-yl]acetamide] | 0.017 | > 20
COCCCNc1cc(C2CCC(F)(F)CC2)nc2nc([C@H](Cc3cc(F)cc(F)c3)NC(=O)Cn3nc(C(F)F)c4c3C(F)(F)[C@@H]3C[C@H]43)n(-c3ccc(Cl)c4c(NS(C)(=O)=O)nn(CCCOC)c34)c(=O)c12 (atropisomer, axis not shown; (P)) [Example 285, N-[(1S)-1-[(3P)-3-[4-chloro-3-methanesulfonamido-1-(3-methoxypropyl)-1H-indazol-7-yl]-7-(4,4-difluorocyclohexyl)-5-[(3-methoxypropyl)amino]-4-oxo-3H,4H-pyrido[2,3-d]pyrimidin-2-yl]-2-(3,5-difluorophenyl)ethyl]-2-[(2S,4R)-9-(difluoromethyl)-5,5-difluoro-7,8-diazatricyclo[4.3.0.0^2,^4]nona-1(6),8-dien-7-yl]acetamide] | 0.009 | > 50
COCCCn1nc(NS(C)(=O)=O)c2c(Cl)ccc(-n3c([C@H](Cc4cc(F)cc(F)c4)NC(=O)Cn4nc(C(F)F)c5c4C(F)(F)[C@@H]4C[C@H]54)nc4nc(C5CCC(F)(F)CC5)cc(NCCC#N)c4c3=O)c21 (atropisomer, axis not shown; (P)) [Example 433, N-[(1S)-1-[(3P)-3-[4-chloro-3-methanesulfonamido-1-(3-methoxypropyl)-1H-indazol-7-yl]-5-[(2-cyanoethyl)amino]-7-(4,4-difluorocyclohexyl)-4-oxo-3H,4H-pyrido[2,3-d]pyrimidin-2-yl]-2-(3,5-difluorophenyl)ethyl]-2-[(2S,4R)-9-(difluoromethyl)-5,5-difluoro-7,8-diazatricyclo[4.3.0.0^2,^4]nona-1(6),8-dien-7-yl]acetamide] | 0.037 | > 20
Cc1cc(C2CCC(F)(F)CC2)nc2nc([C@H](Cc3cc(F)cc(F)c3)NC(=O)Cn3nc(C(F)F)c4c3C(F)(F)[C@@H]3C[C@H]43)n(-c3ccc(Cl)c4c(NS(C)(=O)=O)nn(CCN5CC(F)(F)C(F)(F)C5)c34)c(=O)c12 (atropisomer, axis not shown; (P)) [Example 247, N-[(1S)-1-[(3P)-3-{4-chloro-3-methanesulfonamido-1-[2-(3,3,4,4-tetrafluoropyrrolidin-1-yl)ethyl]-1H-indazol-7-yl}-7-(4,4-difluorocyclohexyl)-5-methyl-4-oxo-3H,4H-pyrido[2,3-d]pyrimidin-2-yl]-2-(3,5-difluorophenyl)ethyl]-2-[(2S,4R)-9-(difluoromethyl)-5,5-difluoro-7,8-diazatricyclo[4.3.0.0^2,^4]nona-1(6),8-dien-7-yl]acetamide] | 0.047 | > 50
Cc1cc(C2CCC(F)(F)CC2)nc2nc([C@H](Cc3cc(F)cc(F)c3)NC(=O)Cn3nc(C4CC4)c4c3C[C@@H]3C[C@H]43)n(-c3ccc(Cl)c4c(NS(C)(=O)=O)nn(C[C@@H](C)N5C[C@H](F)C[C@H](F)C5)c34)c(=O)c12 (relative stereo) [Example 685, N-[(1S)-1-[(3P)-3-{4-chloro-1-[(2R)-2-[(3R,5S)-3,5-difluoropiperidin-1-yl]propyl]-3-methanesulfonamido-1H-indazol-7-yl}-7-(4,4-difluorocyclohexyl)-5-methyl-4-oxo-3H,4H-pyrido[2,3-d]pyrimidin-2-yl]-2-(3,5-difluorophenyl)ethyl]-2-[(2R*,4R*)-9-cyclopropyl-7,8-diazatricyclo[4.3.0.0^2,^4]nona-1(6),8-dien-7-yl]acetamide] | 0.01 | > 20
Cc1cc(C2CCC(F)(F)CC2)nc2nc([C@H](Cc3cc(F)cc(F)c3)NC(=O)Cn3nc(C4CC4)c4c3C[C@@H]3C[C@H]43)n(-c3ccc(Cl)c4c(NS(C)(=O)=O)nn(CCN5C[C@@H](F)[C@@H](F)C5)c34)c(=O)c12 (atropisomer, axis not shown; (P)) [Example 281, N-[(1S)-1-[(3P)-3-(4-chloro-1-{2-[(3R,4S)-3,4-difluoropyrrolidin-1-yl]ethyl}-3-methanesulfonamido-1H-indazol-7-yl)-7-(4,4-difluorocyclohexyl)-5-methyl-4-oxo-3H,4H-pyrido[2,3-d]pyrimidin-2-yl]-2-(3,5-difluorophenyl)ethyl]-2-[(2S,4S)-9-cyclopropyl-7,8-diazatricyclo[4.3.0.0^2,^4]nona-1(6),8-dien-7-yl]acetamide] | 0.011 | > 50
COCCCn1nc(NS(C)(=O)=O)c2c(Cl)ccc(-n3c([C@H](Cc4cc(F)cc(F)c4)NC(=O)Cn4nc(C(F)F)c5c4C(F)(F)[C@@H]4C[C@H]54)nc4nc(C5CCC(F)(F)CC5)cc(NCCCN5CCCCC5)c4c3=O)c21 (atropisomer, axis not shown; (P)) [Example 519, N-[(1S)-1-[(3P)-3-[4-chloro-3-methanesulfonamido-1-(3-methoxypropyl)-1H-indazol-7-yl]-7-(4,4-difluorocyclohexyl)-4-oxo-5-{[3-(piperidin-1-yl)propyl]amino}-3H,4H-pyrido[2,3-d]pyrimidin-2-yl]-2-(3,5-difluorophenyl)ethyl]-2-[(2S,4R)-9-(difluoromethyl)-5,5-difluoro-7,8-diazatricyclo[4.3.0.0^2,^4]nona-1(6),8-dien-7-yl]acetamide] | 0.024 | > 20
Cc1cc(C2(F)CCC(F)(F)CC2)nc2nc([C@H](Cc3cc(F)cc(F)c3)NC(=O)Cn3nc(C(F)F)c4c3C(F)(F)[C@@H]3C[C@H]43)n(-c3ccc(Cl)c4c(NS(C)(=O)=O)nn(CCN5C[C@H]6CC[C@@H](C5)O6)c34)c(=O)c12 (atropisomer, axis not shown; (P)) [Example 589, N-[(1S)-1-[(3P)-3-(4-chloro-3-methanesulfonamido-1-{2-[(1R,5S)-8-oxa-3-azabicyclo[3.2.1]octan-3-yl]ethyl}-1H-indazol-7-yl)-5-methyl-4-oxo-7-(1,4,4-trifluorocyclohexyl)-3H, 4H-pyrido[2,3-d]pyrimidin-2-yl]-2-(3,5-difluorophenyl)ethyl]-2-[(2S,4R)-9-(difluoromethyl)-5,5-difluoro-7,8-diazatricyclo[4.3.0.0^2,^4]nona-1(6),8-dien-7-yl]acetamide] | 0.005 | > 20
Cc1cc(C2(F)CCC(F)(F)CC2)nc2nc([C@H](Cc3cc(F)cc(F)c3)NC(=O)Cn3nc(C4CC4)c4c3C[C@@H]3C[C@H]43)n(-c3ccc(Cl)c4c(NS(C)(=O)=O)nn(CCN5CCO[C@H](C(C)C)C5)c34)c(=O)c12 (atropisomer, axis not shown; (P)) [Example 582, N-[(1S)-1-[(3P)-3-(4-chloro-3-methanesulfonamido-1-{2-[(2R)-2-(propan-2-yl)morpholin-4-yl]ethyl}-1H-indazol-7-yl)-5-methyl-4-oxo-7-(1,4,4-trifluorocyclohexyl)-3H,4H-pyrido[2,3-d]pyrimidin-2-yl]-2-(3,5-difluorophenyl)ethyl]-2-[(2S,4S)-9-cyclopropyl-7,8-diazatricyclo[4.3.0.0^2,^4]nona-1(6),8-dien-7-yl]acetamide] | 0.017 | > 20
